Values quoted from earlier work as cited in US9662346B2, “Method of treating hyperesthesia, paresthesia, dolor, and pruritus caused by insect stings or noxious weeds or plants using avermectin compound” (priority 2007, dated 2017).

What was measured:
[1] = test system: head lice; conditions: single topical application
[2] = oral dosage of a moderate ivermectin concentration

ivermectin
effect on head lice [1]: curative effect | safety in human [2]: safe in human, without serious adverse side effects
